We go through 45 molecules from the Kinase Knowledgebase extract (Sharma et al. 2016).

What is called IC50 is the midpoint of a concentration-inhibition curve. Higher therefore signals weaker potency in that assay.

In this test the target is ROCK2 (human) (UniProt O75116). The experiment in a line: Inhibition of ROCK2 Kinase Activity.
Chain of ROCK2 (human) (O75116 whole entry, looked up): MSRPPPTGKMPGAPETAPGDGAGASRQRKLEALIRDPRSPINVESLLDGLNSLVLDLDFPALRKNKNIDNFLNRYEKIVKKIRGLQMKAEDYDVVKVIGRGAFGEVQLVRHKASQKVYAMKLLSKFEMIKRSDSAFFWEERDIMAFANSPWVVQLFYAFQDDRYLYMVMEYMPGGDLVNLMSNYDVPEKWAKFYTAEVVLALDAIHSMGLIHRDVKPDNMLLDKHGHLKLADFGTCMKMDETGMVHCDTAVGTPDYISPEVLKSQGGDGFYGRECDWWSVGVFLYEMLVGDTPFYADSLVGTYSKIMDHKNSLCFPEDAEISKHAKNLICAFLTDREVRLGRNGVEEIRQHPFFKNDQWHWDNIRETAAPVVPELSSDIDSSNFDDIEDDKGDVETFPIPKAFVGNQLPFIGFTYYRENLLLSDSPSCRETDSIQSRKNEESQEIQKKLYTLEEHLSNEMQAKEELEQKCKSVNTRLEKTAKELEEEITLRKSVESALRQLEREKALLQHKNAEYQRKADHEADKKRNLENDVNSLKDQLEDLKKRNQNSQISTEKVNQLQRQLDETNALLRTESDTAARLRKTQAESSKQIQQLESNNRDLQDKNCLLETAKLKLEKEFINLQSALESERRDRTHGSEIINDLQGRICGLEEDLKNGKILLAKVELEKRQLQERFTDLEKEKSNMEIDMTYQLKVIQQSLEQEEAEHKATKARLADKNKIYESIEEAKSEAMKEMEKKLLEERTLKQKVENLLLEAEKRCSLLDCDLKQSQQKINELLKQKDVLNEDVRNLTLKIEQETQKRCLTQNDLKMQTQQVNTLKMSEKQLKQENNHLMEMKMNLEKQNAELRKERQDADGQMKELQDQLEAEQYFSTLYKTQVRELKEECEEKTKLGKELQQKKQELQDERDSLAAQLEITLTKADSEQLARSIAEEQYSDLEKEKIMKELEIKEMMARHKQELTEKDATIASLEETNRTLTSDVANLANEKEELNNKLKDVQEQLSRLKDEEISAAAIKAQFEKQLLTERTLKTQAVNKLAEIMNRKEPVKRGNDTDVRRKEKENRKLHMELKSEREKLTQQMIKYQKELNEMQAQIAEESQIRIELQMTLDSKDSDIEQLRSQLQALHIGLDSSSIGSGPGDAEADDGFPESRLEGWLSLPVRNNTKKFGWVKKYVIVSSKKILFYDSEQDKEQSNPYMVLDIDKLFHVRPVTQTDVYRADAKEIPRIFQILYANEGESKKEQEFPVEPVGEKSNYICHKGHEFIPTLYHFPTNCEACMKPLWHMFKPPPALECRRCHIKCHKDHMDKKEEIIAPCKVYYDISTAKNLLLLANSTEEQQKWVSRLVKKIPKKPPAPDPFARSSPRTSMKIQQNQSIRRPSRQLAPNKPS
In the case of `NC(c1ccc(C(=O)Nc2ccncc2)cc1)C1CCCN1C(=O)C(c1ccccc1)C1CCCCC1` (stereo not given), the IC50 fell in the range of 500 to 5000 nM.

Molecule `NC(CC(=O)NCCN1CCOCC1)c1ccc(C(=O)Nc2ccncc2)cc1` (stereo not given) showed an IC50 of 50 to 500 nM.

With `NC(CNC(=S)Nc1ccc(C(F)(F)F)cc1)c1ccc(C(=O)Nc2ccncc2)cc1` (stereo not given), the IC50 was in the range of 500 to 5000 nM.

Turning to `NC(CC(=O)NCCc1ccc2c(c1)Cc1ccccc1-2)c1ccc(C(=O)Nc2ccncc2)cc1` (stereo not given), the IC50 lay within 50 to 500 nM.

As for `CN(CC(N)c1ccc(C(=O)Nc2ccncc2)cc1)C(=O)Cc1cccc(Cl)c1` (stereo not given), the concentration for half-maximal inhibition (IC50) was 500 to 5000 nM.

Molecule `COCC(=O)NCC(N)c1ccc(C(=O)Nc2ccncc2)cc1` (stereo not given) gave an IC50 of 500 to 5000 nM.

Turning to `CC(C)(C(=O)NCC(N)c1ccc(C(=O)Nc2ccncc2)cc1)c1ccc(F)c(Cl)c1` (stereo not given), the IC50 was 50 to 500 nM.

On to `NC(CNC(=O)CCC1CCCCC1)c1ccc(C(=O)Nc2ccncc2)cc1` (stereo not given), for which the IC50 was in the range of 50 to 500 nM.

Regarding `COc1ccc(NC(=O)NCC(N)c2ccc(C(=O)Nc3ccncc3)cc2)cc1` (stereo not given), the IC50 was in the range of 50 to 500 nM.

Molecule `COc1ccc(CC(=O)N(C)CC(N)c2ccc(C(=O)Nc3ccncc3)cc2)c(OC)c1OC` (stereo not given) had an IC50 of 5000 to 50000 nM.

Regarding `NC(CNC(=O)C1(c2ccsc2)CC1)c1ccc(C(=O)Nc2ccncc2)cc1` (stereo not given), the IC50 was in the range of 50 to 500 nM.

In turn, `CN(CC(N)c1ccc(C(=O)Nc2ccncc2)cc1)C(=O)C1CCCc2sccc21` (stereo not given) returned an IC50 of 500 to 5000 nM.

Take `CN(CC(N)c1ccc(C(=O)Nc2ccncc2)cc1)C(=O)C(C)(C)c1ccc(Cl)cc1` (stereo not given): the IC50 fell in the range of 500 to 5000 nM.

Molecule `CC1=C(C(=O)NCC(N)c2ccc(C(=O)Nc3ccncc3)cc2)Cc2ccccc21` (stereo not given) displayed an IC50 of 500 to 5000 nM.

In the case of `CN(CC(N)c1ccc(C(=O)Nc2ccncc2)cc1)C(=O)C1(c2ccc(F)cc2F)CC1` (stereo not given), the IC50 was in the range of 500 to 5000 nM.

In the case of `NC(CC(=O)NCCc1ccc(Cl)c(Cl)c1)c1ccc(C(=O)Nc2ccncc2)cc1` (stereo not given), the IC50 lay within 50 to 500 nM.

Turning to `NC(CNC(=O)C1CCc2ccccc2C1)c1ccc(C(=O)Nc2ccncc2)cc1` (stereo not given), the IC50 was 500 to 5000 nM.

With `NC(CC(=O)NCc1cccc(Cl)c1)c1ccc(C(=O)Nc2ccncc2)cc1` (stereo not given), the IC50 is 50 to 500 nM.

`CN(CC(N)c1ccc(C(=O)Nc2ccncc2)cc1)C(=O)C1(c2ccsc2)CC1` (stereo not given) showed an IC50 of 500 to 5000 nM.

In turn, `N[C@@H](CC(=O)NC1COc2ccccc21)c1ccc(C(=O)Nc2ccncc2)cc1` (stereo not given in full) registered an IC50 of 50 to 500 nM.

Turning to `NC(c1ccc(C(=O)Nc2ccncc2)cc1)C1CCCN1C(=O)Cc1c(F)cccc1F` (stereo not given), the IC50 is 500 to 5000 nM.

`Cc1ccc(CCNC(=O)CC(N)c2ccc(C(=O)Nc3ccncc3)cc2)cc1` (stereo not given) yielded an IC50 of 50 to 500 nM.

As to `CN(CC(N)c1ccc(C(=O)Nc2ccncc2)cc1)C(=O)C1CCSc2ccc(F)cc21` (stereo not given), the IC50 is 5000 to 50000 nM.

`CN(CC(N)c1ccc(C(=O)Nc2ccncc2)cc1)C(=O)C1(c2ccc(Cl)c(Cl)c2)CC1` (stereo not given) showed an IC50 of 500 to 5000 nM.

Molecule `CN(CC(N)c1ccc(C(=O)Nc2ccncc2)cc1)C(=O)C(C)(C)c1ccc(F)cc1` (stereo not given) showed an IC50 of 500 to 5000 nM.

`NC(c1ccc(C(=O)Nc2ccncc2)cc1)C1CCCN1C(=O)Cc1ccc(Cl)cc1F` (stereo not given) yielded an IC50 of 500 to 5000 nM.

In the case of `NC(CC(=O)NCc1ccc(F)c(C(F)(F)F)c1)c1ccc(C(=O)Nc2ccncc2)cc1` (stereo not given), the IC50 is 50 to 500 nM.

For `CN(CC(N)c1ccc(C(=O)Nc2ccncc2)cc1)C(=O)C1CCSc2ccccc21` (stereo not given), the IC50 was 5000 to 50000 nM.

Take `NC(CC(=O)NCC1CCCO1)c1ccc(C(=O)Nc2ccncc2)cc1` (stereo not given): the IC50 was 50 to 500 nM.

Molecule `NC(CNC(=S)Nc1ccccc1)c1ccc(C(=O)Nc2ccncc2)cc1` (stereo not given) came in with an IC50 of 50 to 500 nM.

Consider `COc1cccc(NC(=O)NCC(N)c2ccc(C(=O)Nc3ccncc3)cc2)c1` (stereo not given), for which the IC50 was 50 to 500 nM.

In turn, `NC(CC(=O)NCc1cccc(Br)c1)c1ccc(C(=O)Nc2ccncc2)cc1` (stereo not given) came in with an IC50 of 50 to 500 nM.

Turning to `CN(CC(N)c1ccc(C(=O)Nc2ccncc2)cc1)C(=O)C1(c2ccc(F)c(F)c2)CCCC1` (stereo not given), the IC50 lay in the range of 500 to 5000 nM.

`NC(CC(=O)NCCc1ccc(Cl)cc1Cl)c1ccc(C(=O)Nc2ccncc2)cc1` (stereo not given) returned an IC50 of 50 to 500 nM.

As for `NC(CC(=O)Nc1cc(-c2ccco2)[nH]n1)c1ccc(C(=O)Nc2ccncc2)cc1` (stereo not given), the IC50 lay in the range of 50 to 500 nM.

Regarding `NC(CNC(=O)CSc1ncccn1)c1ccc(C(=O)Nc2ccncc2)cc1` (stereo not given), the IC50 fell in the range of 500 to 5000 nM.

With `CC(C)(C)c1ccc(NC(=O)NCC(N)c2ccc(C(=O)Nc3ccncc3)cc2)cc1` (stereo not given), the IC50 was 500 to 5000 nM.

In turn, `NC(CNC(=O)c1ccoc1)c1ccc(C(=O)Nc2ccncc2)cc1` (stereo not given) came in with an IC50 of 50 to 500 nM.

As to `CCC(Oc1ccccc1)C(=O)NCC(N)c1ccc(C(=O)Nc2ccncc2)cc1` (stereo not given), the IC50 is 50 to 500 nM.

Consider `NC(CC(=O)NCc1cccc([N+](=O)[O-])c1)c1ccc(C(=O)Nc2ccncc2)cc1` (stereo not given), for which the IC50 lay in the range of 50 to 500 nM.

In turn, `CN(CC(N)c1ccc(C(=O)Nc2ccncc2)cc1)C(=O)Cc1ccc(Cl)cc1F` (stereo not given) returned an IC50 of 500 to 5000 nM.

The molecule `NC(CNC(=O)C1(c2ccc(F)cc2Cl)CC1)c1ccc(C(=O)Nc2ccncc2)cc1` (stereo not given) came in with an IC50 of 50 to 500 nM.

`CC[C@@H](NC(=O)CC(N)c1ccc(C(=O)Nc2ccncc2)cc1)c1ccc(C)cc1` (stereo not given in full) showed an IC50 of 50 to 500 nM.

As to `CN(CC(N)c1ccc(C(=O)Nc2ccncc2)cc1)C(=O)C1(c2ccc(F)cc2)CCCC1` (stereo not given), the IC50 is 500 to 5000 nM.

Molecule `NC(CNC(=S)Nc1cccc2ccccc12)c1ccc(C(=O)Nc2ccncc2)cc1` (stereo not given) had an IC50 of 50 to 500 nM.
